Laboratory results from US20220096664A1, “STABILIZED FORMULATIONS CONTAINING IODINATED CONTRAST AGENTS AND CYCLODEXTRINS” (Verrow Pharmaceuticals, Inc., priority 2012, published 2022).
Like-named read-outs stand apart in the source and are kept apart here.

Key:
[1] = assay type: physicochemical; settings: for Iodide formed: 50 mM agent, 10 mM TRIS, pH 7.4, autoclaved then UV 18 h; for percent change in iodide degradants, UV: 24 h; for percent change in iodide degradants, UV / percent change in iodide degradants, VIS: pH 7.1; for percent change in iodide degradants, VIS: 72 h
[2] = Photostability: iodide formed after UV light irradiation; assay type: physicochemical; settings: 18 h, 50 mM
Procedure: Aqueous solutions comprising iodinated contrast agents were prepared and evaluated in a photolysis chamber as described in the ICH guidance document, Q1B Photostability Testing of New Drug Substances and Products, available from the US Food and Drug Administration, incorporated herein by reference. The solutions were placed in 1 cm×1 cm (3 mL) quartz cuvettes having 2 clear sides and 2 sides etched. Lids were placed on the cuvettes and sealed with a wrap of Parafilm® around the joint. The cuvettes were placed in a photolysis chamber, upright on a flat surface beneath and centered between two horizontal 24 inch fluorescent lamps, (GE, black light F20T12, 20 watt for ultraviolet, or Philips F20T12/CW, 20 watt for visible) placed 6 cm apart. The cuvettes were positioned such that their two clear sides were facing the two lamps.
Cuvettes were spaced ˜2 cm from each other, and no closer than 15 cm from the ends of the lamps. This positioning allowed reproducible light exposure to all cuvettes.
The lamps were switched on and the solutions irradiated for 18 to 24 hours for the ultraviolet (UV) lamps or 72 to 90 hours for the visible (VIS) light lamps. At the end of the selected irradiation time, the cuvettes were removed from the photolysis chamber and mixed by inversion 2-times. The caps were then removed and 40 microliter aliquots taken and diluted with 1 mL of an aqueous solution containing ˜0.9 mg/mL sodium thiosulfate. The thiosulfate solution converted any I2, IO3^−, and I3^− present in the solution tor such that total iodine species could be determined in one assay.
The diluted solutions were assayed by high pressure liquid chromatography (HPLC) using a 4.6×250 mm, C-18, 5 micron particle size, reversed phase column with detection at 280 nm for the contrast agent and 230 nm for the thiosulfate and the iodide ion (r). A mobile phase of 30:70 methanol:aqueous buffer (50 mM KH2PO4+7 mL/L 40% tetrabutyl ammonium hydroxide) at 0.75 mL/min was used for elution. Injection volume was 20 microliters. External standards were prepared containing each contrast agent, potassium iodide, and sodium thiosulfate solution and analyzed along with the irradiated samples. The results were reported as weight percentage iodide formed (mg iodide/mg contrast agent times 100).
The absorbance readings at 400 nm due to light exposure were plotted against time of exposure and the resulting correlation used to determine the UV and VIS light exposure. A change in absorbance reading of 0.45 was assumed equivalent to 200 watt hours/square meter for the UV light and a change of 0.51 was assumed equivalent to 1.2 million lux hours for the VIS light. The UV lamps provided 6.62 watts/square meter and the VIS lamps provided 7180 lux.
Aqueous solutions were prepared containing 50 mM contrast agent by diluting commercially available solutions with water. Tromethamine HCl buffer (TRIS), was added to solutions as necessary to increase the TRIS content to that of the commercial product before dilution.
SCD was added to the solutions at various mole ratios and the pH of the solutions adjusted to 7.4 with 0.1N hydrochloric acid or 0.1N sodium hydroxide. The solutions were irradiated with UV light for 18 hours (119 watt hours/m^2) then processed, analyzed and reported as in Example 2. The SCDs evaluated were sulfobutyl ether beta-cyclodextrin with an average degree of substitution of 7 (SBE-704CD), and two 2-hydroxypropyl beta-cyclodextrin derivatives having 6.3 (HP-6.3n/CD) and 4.3 (HP-4.3-βCD) average degrees of substitution.
Aqueous solutions were prepared containing 50 mM contrast agent by diluting commercially available solutions with distilled water. Tromethamine HCl buffer (TRIS), was added to some solutions to increase the buffer content.
The solutions were divided and SBE-7-CD added to one aliquot at a contrast agent:SCD mole ratio of 1:1. The pH of the solutions was adjusted to 5, 6, 7, 7.4 or 8 with 0.1N hydrochloric acid or sodium hydroxide. […]

O=C(NCC(O)CO)c1c(I)c(C(=O)NCC(O)CO)c(I)c(N(CCO)C(=O)CO)c1I (stereo not drawn) [Ioversol, ioversol]
Iodide formed ([1]; agent:SBE7-β-CD 1:0.1): 0.545 wt %
Iodide formed ([1]; no SCD (1:0)): 0.665 wt %
percent change in iodide degradants formed in the presence of the SCD ([1]; 18 h, 50 mM, pH 7.4): (−18%)
percent change in iodide degradants, UV ([1]; 160 mg I/mL): (−24.0%)
percent change in iodide degradants, UV ([1]; 240 mg I/mL): (−19.2%)
percent change in iodide degradants, UV ([1]; 300 mg I/mL): (−17.2%)
percent change in iodide degradants, UV ([1]; 320 mg I/mL): (−36.7%)
percent change in iodide degradants, UV ([1]; 350 mg I/mL): (−26.8%)
percent change in iodide degradants, VIS ([1]; 160 mg I/mL): (−9.9%)
percent change in iodide degradants, VIS ([1]; 240 mg I/mL): (−11.9%)
percent change in iodide degradants, VIS ([1]; 300 mg I/mL): (−17.4%)
percent change in iodide degradants, VIS ([1]; 320 mg I/mL): (−14.2%)
percent change in iodide degradants, VIS ([1]; 350 mg I/mL): (−11.7%)
Iodide Formed, UV ([1]; Ioversol 160 mg I/mL, pH 7.1, agent:SBE7CD 1:0.05, autoclaved then UV 24 h): 0.171 wt %
Iodide Formed, VIS ([1]; Ioversol 160 mg I/mL, pH 7.1, agent:SBE7CD 1:0.05, autoclaved then VIS 72 h): 0.0646 wt %
Iodide Formed, UV ([1]; Ioversol 160 mg I/mL, pH 7.1, no SCD (1:0), autoclaved then UV 24 h): 0.225 wt %
Iodide Formed, VIS ([1]; Ioversol 160 mg I/mL, pH 7.1, no SCD (1:0), autoclaved then VIS 72 h): 0.0717 wt %
Iodide Formed, UV ([1]; Ioversol 240 mg I/mL, pH 7.1, agent:SBE7CD 1:0.05, autoclaved then UV 24 h): 0.126 wt %
Iodide Formed, VIS ([1]; Ioversol 240 mg I/mL, pH 7.1, agent:SBE7CD 1:0.05, autoclaved then VIS 72 h): 0.0400 wt %
Iodide Formed, UV ([1]; Ioversol 240 mg I/mL, pH 7.1, no SCD (1:0), autoclaved then UV 24 h): 0.156 wt %
Iodide Formed, VIS ([1]; Ioversol 240 mg I/mL, pH 7.1, no SCD (1:0), autoclaved then VIS 72 h): 0.0454 wt %
Iodide Formed, UV ([1]; Ioversol 300 mg I/mL, pH 7.1, agent:SBE7CD 1:0.05, autoclaved then UV 24 h): 0.111 wt %
Iodide Formed, VIS ([1]; Ioversol 300 mg I/mL, pH 7.1, agent:SBE7CD 1:0.05, autoclaved then VIS 72 h): 0.0298 wt %
Iodide Formed, UV ([1]; Ioversol 300 mg I/mL, pH 7.1, no SCD (1:0), autoclaved then UV 24 h): 0.134 wt %
Iodide Formed, VIS ([1]; Ioversol 300 mg I/mL, pH 7.1, no SCD (1:0), autoclaved then VIS 72 h): 0.0361 wt %
Iodide Formed, UV ([1]; Ioversol 320 mg I/mL, pH 7.1, agent:SBE7CD 1:0.05, autoclaved then UV 24 h): 0.0778 wt %
Iodide Formed, VIS ([1]; Ioversol 320 mg I/mL, pH 7.1, agent:SBE7CD 1:0.05, autoclaved then VIS 72 h): 0.0277 wt %
Iodide Formed, UV ([1]; Ioversol 320 mg I/mL, pH 7.1, no SCD (1:0), autoclaved then UV 24 h): 0.123 wt %
Iodide Formed, VIS ([1]; Ioversol 320 mg I/mL, pH 7.1, no SCD (1:0), autoclaved then VIS 72 h): 0.0323 wt %
Iodide Formed, UV ([1]; Ioversol 350 mg I/mL, pH 7.1, agent:SBE7CD 1:0.05, autoclaved then UV 24 h): 0.0864 wt %
Iodide Formed, VIS ([1]; Ioversol 350 mg I/mL, pH 7.1, agent:SBE7CD 1:0.05, autoclaved then VIS 72 h): 0.0250 wt %
Iodide Formed, UV ([1]; Ioversol 350 mg I/mL, pH 7.1, no SCD (1:0), autoclaved then UV 24 h): 0.118 wt %
Iodide Formed, VIS ([1]; Ioversol 350 mg I/mL, pH 7.1, no SCD (1:0), autoclaved then VIS 72 h): 0.0283 wt %
% Change in iodide degradants formed in the presence of the SCD ([2]; pH 5): −43.6%
% Change in iodide degradants formed in the presence of the SCD ([2]; pH 7.4): −58.5%
% Change in iodide degradants formed in the presence of the SCD ([2]; pH 8): −47%
